The source of these data is US11325916B1, “Spiropyrrolidine derived antiviral agents” (priority 2021, dated 2022).

Read-outs that look alike come from different tables or passages of the source.

In one experiment the target is SARS-CoV-2 3CL-protease (Severe acute respiratory syndrome coronavirus 2 (2019-nCoV) (SARS-CoV-2), UniProt P0DTD1). Kind of experiment: SARS-CoV-2 3C-Like (3CL) Protease Fluorescence Assay (FRET). The class given is biochemical.
In experiment [1] the test system is 229E human corona virus (hCoV). Kind of experiment: 229E Live Virus Assay (MRC-5 cells, CPE, ATPlite readout). Particulars: Human coronavirus 229E, MRC5, 144 h, read-out: 229E EC50. The class given is cell-based, hCoV-229E. A general note: In ATP-based viability assays light output follows the ATP content of the culture.
The mark [2] stands for this setting: MRC-5 cells, hCoV-229E MOI 0.05, 6 days at 34° C., ATPlite, duplicate, ranges defined in μM.

With `CC(C)(C)C(N)C(=O)N1CCC[C@H]1C(=O)N1C[C@]2(C[C@H]1C#N)C(=O)Nc1ccccc12` (stereo partly drawn) [Example 56], the IC50 against SARS-CoV-2 3CL-protease is > 1000 nM. For the same compound, the EC50 in experiment [1] (setting [2]) is > 1 µM.
As for `COC(=O)N[C@H](C(=O)N(C)[C@@H](CC(C)C)C(=O)N1C[C@]2(C[C@H]1C#N)C(=O)Nc1ccccc12)C1CCCCC1` [Example 23], the IC50 at SARS-CoV-2 3CL-protease is < 100 nM. The EC50 in experiment [1] lay within 0.1 to 1 µM.
Turning to `CC(C)C[C@@H](C(=O)N1C[C@]2(C[C@H]1C#N)C(=O)Nc1ccccc12)N(C)C(=O)[C@H](CC(C)(C)C)NC(=O)C(F)(F)F` [Example 26], at SARS-CoV-2 3CL-protease, the IC50 was < 100 nM. Besides, in experiment [1], the 50% effective concentration (EC50) was < 0.1 µM.
The like results for `CC(C)C[C@@H](C(=O)N1C[C@]2(C[C@H]1C#N)C(=O)Nc1ccccc12)N(C)C(=O)[C@@H](NC(=O)C(F)(F)F)C1CCCCC1` [Example 21] were, in that order, < 100 nM and < 0.1 µM.
The like results for `[2H]C([2H])([2H])N(C(=O)[C@H](CC1CC1)NC(C)=O)[C@@H](Cc1ccc(F)cc1)C(=O)N1C[C@]2(C[C@H]1C#N)C(=O)Nc1ccccc12` [Example 73] were, in that order, < 100 nM and < 0.1 µM.
The like results for `CC(C)C[C@@H](C(=O)N1C[C@]2(C[C@H]1C#N)C(=O)Nc1ccccc12)N(C)C(=O)[C@@H](NC(=O)C(F)(F)F)C(C)(C)C` [Example 12] were, in that order, < 100 nM and 0.1 to 1 µM.
Regarding `CC(C)[C@H](NC(=O)C(F)(F)F)C(=O)N[C@@H](CC(C)(C)C)C(=O)N1C[C@]2(C[C@H]1C#N)C(=O)Nc1ccccc12` [Example 90], the IC50 against SARS-CoV-2 3CL-protease was < 100 nM. Moreover, the EC50 in experiment [1] was 0.1 to 1 µM.
As for `CN(C(=O)[C@H](Cc1ccc(F)cc1)NC(=O)N1CCOCC1)[C@@H](CC(C)(C)C)C(=O)N1C[C@]2(C[C@H]1C#N)C(=O)Nc1ccccc12` [Example 68], the IC50 against SARS-CoV-2 3CL-protease is < 100 nM. For the same compound, in experiment [1], the EC50 is < 0.1 µM.
The corresponding values for `CN(C(=O)[C@H](Cc1ccc(F)cc1)NC(=O)NC1CC1)[C@@H](CC(C)(C)C)C(=O)N1C[C@]2(C[C@H]1C#N)C(=O)Nc1ccccc12` [Example 8] are < 100 nM and < 0.1 µM.
In the case of `[2H]C([2H])([2H])N(C(=O)[C@H](CC1CC1)NC(=O)C(F)(F)F)[C@@H](CC1CC1)C(=O)N1C[C@]2(C[C@H]1C#N)C(=O)Nc1ccccc12` [Example 134], the IC50 on SARS-CoV-2 3CL-protease was < 100 nM. The EC50 in experiment [1] is < 0.1 µM.
As to `CC(C)[C@H](NC(=O)c1ccc2c(F)cc(F)cc2n1)C(=O)N(C)[C@@H](CC(C)(C)C)C(=O)N1C[C@]2(C[C@H]1C#N)C(=O)Nc1ccccc12` [Example 109], on SARS-CoV-2 3CL-protease, the IC50 is < 100 nM. Also, in experiment [1], the EC50 lay in the range of 0.1 to 1 µM.
On to `CC(=O)N[C@@H](CC1CC1)C(=O)N(C)[C@@H](CC(C)C)C(=O)N1C[C@]2(C[C@H]1C#N)C(=O)Nc1ccccc12` [Example 41], for which the IC50 against SARS-CoV-2 3CL-protease was < 100 nM. Besides, the EC50 in experiment [1] was < 0.1 µM.
Turning to `CN(C(=O)[C@H](CC1CC1)NC(=O)c1cn(C2CC2)nn1)[C@@H](CC(C)(C)C)C(=O)N1C[C@]2(C[C@H]1C#N)C(=O)Nc1ccccc12` [Example 124], the IC50 at SARS-CoV-2 3CL-protease was < 100 nM. For the same compound, the EC50 in experiment [1] was < 0.1 µM.
The corresponding values for `CN(C(=O)[C@H](Cc1ccc(F)cc1)NS(=O)(=O)C1CC1)[C@@H](CC(C)(C)C)C(=O)N1C[C@]2(C[C@H]1C#N)C(=O)Nc1ccccc12` [Example 66] are < 100 nM and < 0.1 µM.
The like results for `CC(C)C[C@@H](C(=O)N1C[C@]2(C[C@H]1C#N)C(=O)Nc1ccccc12)N(C)C(=O)[C@@H](NC(=O)OCc1ccccc1)C(C)(C)C` [Example 11] were, in that order, < 100 nM and 0.1 to 1 µM.
The like results for `CC(=O)N(C)[C@@H](CC(C)(C)C)C(=O)N(C)[C@@H](CC(C)C)C(=O)N1C[C@]2(C[C@H]1C#N)C(=O)Nc1ccccc12` [Example 44] were, in that order, < 100 nM and 0.1 to 1 µM.
As to `COC(=O)N[C@@H](Cc1ccc(F)cc1)C(=O)N(C)[C@@H](CC(C)C)C(=O)N1C[C@]2(C[C@H]1C#N)C(=O)Nc1ccccc12` [Example 3], on SARS-CoV-2 3CL-protease, the half-maximal inhibitory concentration (IC50) was < 100 nM. In addition, in experiment [1], the EC50 is < 0.1 µM.
`CC(C)C[C@@H](C(=O)N1C[C@]2(C[C@H]1C#N)C(=O)Nc1ccccc12)N1CC[C@H](NC(=O)OC(C)(C)C)C1=O` [Example 10]: at SARS-CoV-2 3CL-protease, the IC50 lay within 100 to 1000 nM. Also, the EC50 in experiment [1] (setting [2]) lay in the range of 0.1 to 1 µM.
In the case of `CC(C)[C@H](NC(=O)OCc1ccccc1)C(=O)N[C@@H](CC(C)(C)C)C(=O)N1C[C@]2(C[C@H]1C#N)C(=O)Nc1ccccc12` [Example 86], the IC50 on SARS-CoV-2 3CL-protease is < 100 nM. The EC50 in experiment [1] lay in the range of 0.1 to 1 µM.
The corresponding values for `CC(C)C[C@@H](C(=O)N1C[C@]2(C[C@H]1C#N)C(=O)Nc1ccccc12)N(C)C(=O)[C@H](CC(C)(C)C)NC(=O)c1ccc(F)cc1` [Example 34] are < 100 nM and < 0.1 µM.
The corresponding values for `CC(C)C[C@@H](C(=O)N1C[C@]2(C[C@H]1C#N)C(=O)Nc1ccccc12)N(C)C(=O)[C@H](CC1CCC1)NC(=O)c1ccc(F)cc1` [Example 35] are < 100 nM and < 0.1 µM.
On to `CC(C)[C@H](NC(=O)OCC1(c2ccccc2)CC1)C(=O)N(C)[C@@H](CC(C)(C)C)C(=O)N1C[C@]2(C[C@H]1C#N)C(=O)Nc1ccccc12` [Example 110], for which the IC50 against SARS-CoV-2 3CL-protease is < 100 nM. Further, the EC50 in experiment [1] fell in the range of 0.1 to 1 µM.
The like results for `CC(C)C[C@@H](C(=O)N1C[C@]2(C[C@H]1C#N)C(=O)Nc1ccccc12)N(C)C(=O)C1(NC(=O)OCc2ccccc2)CCCC1` [Example 115] were, in that order, < 100 nM and 0.1 to 1 µM.
The like results for `CN(C(=O)[C@H](Cc1ccc(F)cc1)N1CCCC1=O)[C@@H](CC(C)(C)C)C(=O)N1C[C@]2(C[C@H]1C#N)C(=O)Nc1ccccc12` [Example 67] were, in that order, < 100 nM and < 0.1 µM.
The corresponding values for `CC(C)C[C@H](NC(=O)[C@@H](NC(=O)OCc1ccccc1)C(C)(C)C)C(=O)N1C[C@]2(C[C@H]1C#N)C(=O)Nc1ccccc12` [Example 36] are < 100 nM and 0.1 to 1 µM.
For the compound `CC(=O)N[C@H](Cc1cc(F)c(F)cc1F)C(=O)N(C)[C@@H](CC(C)(C)C)C(=O)N1C[C@]2(C[C@H]1C#N)C(=O)Nc1ccccc12` [Example 114], the half-inhibitory concentration (IC50) on SARS-CoV-2 3CL-protease is < 100 nM. Further, the EC50 in experiment [1] was < 0.1 µM.
The like results for `CC(C)[C@H](NC(=O)N1CCCCC1)C(=O)N(C)[C@@H](CC(C)(C)C)C(=O)N1C[C@]2(C[C@H]1C#N)C(=O)Nc1ccccc12` [Example 112] were, in that order, < 100 nM and 0.1 to 1 µM.
The corresponding values for `CC(C)C[C@@H](C(=O)N1C[C@]2(C[C@H]1C#N)C(=O)Nc1ccccc12)N(C)C(=O)[C@H](Cc1ccc(F)cc1)NC(=O)c1ccn(C)n1` [Example 19] are < 100 nM and < 0.1 µM.
For `CC(C)[C@H](NC(=O)c1cc2c(F)cc(F)c(F)c2[nH]1)C(=O)N[C@@H](CC(C)(C)C)C(=O)N1C[C@]2(C[C@H]1C#N)C(=O)Nc1ccccc12` [Example 92], at SARS-CoV-2 3CL-protease, the IC50 is < 100 nM. The EC50 in experiment [1] was 0.1 to 1 µM.
The like results for `CC(C)C[C@@H](C(=O)N1C[C@]2(C[C@H]1C#N)C(=O)Nc1ccccc12)N(C)C(=O)[C@H](CC(C)(C)C)N(C)C(=O)OCc1ccccc1` [Example 32] were, in that order, < 100 nM and < 0.1 µM.
On to `CC(C)(C)C(NC(=O)c1ccc(F)cc1)C(=O)N1CCC[C@H]1C(=O)N1C[C@]2(C[C@H]1C#N)C(=O)Nc1ccccc12` (stereo partly drawn) [Example 58], for which the IC50 at SARS-CoV-2 3CL-protease is > 1000 nM. Moreover, in experiment [1], the EC50 was > 1 µM.
On to `CN(C(=O)[C@H](Cc1ccc(F)cc1)NC(=O)C(F)(F)F)[C@@H](CC(C)(C)C)C(=O)N1C[C@]2(C[C@H]1C#N)C(=O)Nc1ccccc12` [Example 6], for which, at SARS-CoV-2 3CL-protease, the IC50 was < 100 nM. Moreover, the EC50 in experiment [1] (setting [2]) was < 0.1 µM.
For the compound `CC(C)(C)C[C@H](NC(=O)[C@H](Cc1ccc(F)cc1)NC(=O)OCc1ccccc1)C(=O)N1C[C@]2(C[C@H]1C#N)C(=O)Nc1ccccc12` [Example 62], on SARS-CoV-2 3CL-protease, the IC50 is < 100 nM. In addition, the EC50 in experiment [1] is > 1 µM.
For the compound `CC(C)C[C@@H](C(=O)N1C[C@]2(C[C@H]1C#N)C(=O)Nc1ccccc12)N(C)C(=O)[C@H](Cc1ccc(F)cc1)NC(=O)C(F)(F)F` [Example 2], at SARS-CoV-2 3CL-protease, the concentration for half-maximal inhibition (IC50) was < 100 nM. Besides, the EC50 in experiment [1] (setting [2]) is < 0.1 µM.
For the compound `CN(C(=O)[C@H](Cc1ccc(F)cc1)NC(=O)C1COC1)[C@@H](CC(C)(C)C)C(=O)N1C[C@]2(C[C@H]1C#N)C(=O)Nc1ccccc12` [Example 65], the IC50 on SARS-CoV-2 3CL-protease was < 100 nM. For the same compound, in experiment [1], the EC50 is < 0.1 µM.
The like results for `CN(C(=O)[C@@H](NCc1cc(F)c(F)cc1F)C(C)(C)C)[C@@H](Cc1ccccc1)C(=O)N1C[C@]2(C[C@H]1C#N)C(=O)Nc1ccccc12` [Example 30] were, in that order, < 100 nM and 0.1 to 1 µM.
The like results for `CC(C)C[C@@H](C(=O)N1C[C@]2(C[C@H]1C#N)C(=O)Nc1ccccc12)N(C)C(=O)[C@H](Cc1ccc(F)cc1)NC(=O)OCc1ccccc1` [Example 1] were, in that order, < 100 nM and < 0.1 µM.
`CC(C)C(=O)N[C@@H](CC1CC1)C(=O)N(C)[C@@H](CC(C)(C)C)C(=O)N1C[C@]2(C[C@H]1C#N)C(=O)Nc1ccccc12` [Example 80]: on SARS-CoV-2 3CL-protease, the IC50 was < 100 nM. Moreover, the EC50 in experiment [1] was < 0.1 µM.
For the compound `CC(C)C[C@@H](C(=O)N1C[C@]2(C[C@H]1C#N)C(=O)Nc1ccccc12)N(C)C(=O)[C@H](Cc1ccc(F)cc1)NC(=O)c1cnccn1` [Example 18], the IC50 against SARS-CoV-2 3CL-protease was < 100 nM. Further, the EC50 in experiment [1] is < 0.1 µM.
Turning to `CC(C)[C@@H](NC(=O)C(F)(F)F)C(=O)N(C)[C@@H](Cc1ccccc1)C(=O)N1C[C@]2(C[C@H]1C#N)C(=O)Nc1ccccc12` [Example 51], the IC50 against SARS-CoV-2 3CL-protease was < 100 nM. In addition, the EC50 in experiment [1] (setting [2]) is 0.1 to 1 µM.
Take `CC(C)C[C@@H](C(=O)N1C[C@]2(C[C@H]1C#N)C(=O)Nc1ccccc12)N(C)C(=O)[C@H](CC1CC1)NC(=O)C(F)(F)F` [Example 15]: the IC50 against SARS-CoV-2 3CL-protease is < 100 nM. In addition, in experiment [1], the EC50 was < 0.1 µM.
Turning to `CC(C)(C)C(NC(=O)NCc1ccccc1)C(=O)N1CCC[C@H]1C(=O)N1C[C@]2(C[C@H]1C#N)C(=O)Nc1ccccc12` (stereo partly drawn) [Example 60], the IC50 at SARS-CoV-2 3CL-protease is > 1000 nM. Also, in experiment [1], the EC50 was > 1 µM.

In general, IC50 refers to the concentration at which inhibition is half-maximal. A low value points to greater potency. A word on the EC50: it is the midpoint of the concentration-response curve.
